Test results from patent publication US20260285855A1, “HETEROARYL DERIVATIVES AS DDRS INHIBITORS” (CHIESI FARMACEUTICI S.P.A., priority 2023, published 2026).

Assays:
DDR1 = biological target: T1, DDR1 (Homo sapiens, UniProt Q08345); assay: LanthaScreen Europium Kinase Binding assay, DDR1; conditions: 5 nM DDR1, 20 nM Kinase Tracer 178, 1 h at rt; Ki from IC50 by Cheng-Prusoff; read-out: Ki DDR1
T1 construct: purchased Carna Biosciences
Method: (§1) DDR1 and DDR2 binding assays were performed using Life Technologies LanthaScreen™ Europium Kinase Binding assay. […] IC50 values were determined in GraphPad Prism 7.0 software, using 4 parameter model: log (inhibitor) vs. response. IC50 values were converted in Ki using the Cheng-Prusoff equation (Ki-IC50/(1+ [Tracer]/Kd).

DDR2 = biological target: T2, DDR2 (Homo sapiens, UniProt Q16832); assay: LanthaScreen Europium Kinase Binding assay, DDR2; conditions: 5 nM DDR2, 10 nM Kinase Tracer 178, 1 h at rt; Ki from IC50 by Cheng-Prusoff; read-out: Ki DDR2
T2 construct: purchased Life Technologies
T2 sequence (Q16832 22-855): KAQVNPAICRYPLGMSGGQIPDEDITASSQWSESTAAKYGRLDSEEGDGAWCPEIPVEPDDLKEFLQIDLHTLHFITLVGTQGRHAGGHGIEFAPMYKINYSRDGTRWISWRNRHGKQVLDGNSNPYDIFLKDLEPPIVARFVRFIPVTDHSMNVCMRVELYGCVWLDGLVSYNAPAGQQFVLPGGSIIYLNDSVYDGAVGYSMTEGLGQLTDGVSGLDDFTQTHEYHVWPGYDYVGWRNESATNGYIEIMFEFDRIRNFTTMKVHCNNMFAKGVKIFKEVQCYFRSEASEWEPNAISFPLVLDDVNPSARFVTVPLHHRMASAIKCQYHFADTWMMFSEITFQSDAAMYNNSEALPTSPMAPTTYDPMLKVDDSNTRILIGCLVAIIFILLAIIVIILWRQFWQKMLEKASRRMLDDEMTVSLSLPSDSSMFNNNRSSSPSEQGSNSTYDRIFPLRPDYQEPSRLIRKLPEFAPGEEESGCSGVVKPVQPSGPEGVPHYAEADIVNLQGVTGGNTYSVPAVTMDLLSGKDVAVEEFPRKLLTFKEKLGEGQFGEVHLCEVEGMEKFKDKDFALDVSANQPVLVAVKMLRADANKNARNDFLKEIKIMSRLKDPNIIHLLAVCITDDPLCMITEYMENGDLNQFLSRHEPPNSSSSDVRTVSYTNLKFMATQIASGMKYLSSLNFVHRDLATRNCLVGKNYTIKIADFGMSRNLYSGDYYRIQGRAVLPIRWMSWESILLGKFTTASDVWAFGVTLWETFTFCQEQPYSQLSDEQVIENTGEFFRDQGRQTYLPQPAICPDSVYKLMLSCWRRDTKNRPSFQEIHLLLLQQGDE
Method: as §1

T1 sequence (Q08345 19-913): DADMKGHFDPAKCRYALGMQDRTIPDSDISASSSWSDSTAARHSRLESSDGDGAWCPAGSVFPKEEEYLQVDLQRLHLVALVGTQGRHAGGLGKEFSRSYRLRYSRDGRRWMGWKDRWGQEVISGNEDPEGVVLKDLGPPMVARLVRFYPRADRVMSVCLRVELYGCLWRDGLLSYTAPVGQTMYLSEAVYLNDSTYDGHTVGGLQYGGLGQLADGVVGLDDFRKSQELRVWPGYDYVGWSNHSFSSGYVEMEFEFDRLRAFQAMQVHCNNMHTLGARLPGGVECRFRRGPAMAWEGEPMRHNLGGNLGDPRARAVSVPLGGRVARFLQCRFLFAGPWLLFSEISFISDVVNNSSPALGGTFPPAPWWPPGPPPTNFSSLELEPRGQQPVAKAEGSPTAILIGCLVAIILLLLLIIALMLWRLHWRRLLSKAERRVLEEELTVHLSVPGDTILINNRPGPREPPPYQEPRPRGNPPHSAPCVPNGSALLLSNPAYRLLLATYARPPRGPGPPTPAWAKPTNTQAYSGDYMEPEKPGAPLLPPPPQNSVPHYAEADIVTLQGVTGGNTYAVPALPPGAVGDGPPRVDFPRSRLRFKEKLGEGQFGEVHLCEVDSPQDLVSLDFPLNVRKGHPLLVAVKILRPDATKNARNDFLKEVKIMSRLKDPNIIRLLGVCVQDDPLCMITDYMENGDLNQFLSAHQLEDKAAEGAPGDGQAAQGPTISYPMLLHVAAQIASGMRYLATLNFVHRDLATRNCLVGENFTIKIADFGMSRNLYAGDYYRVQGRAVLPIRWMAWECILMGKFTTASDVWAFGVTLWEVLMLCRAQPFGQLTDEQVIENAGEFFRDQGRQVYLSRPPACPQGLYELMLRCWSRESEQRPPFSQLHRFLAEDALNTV

Row | SMILES | Ki (DDR1) | Ki (DDR2)
1 | Cn1ccn2ncc(C(=O)N3CC4(CC(N(CC(F)(F)F)C(=O)Nc5cccc(C(F)(F)F)c5)C4)C3)c12 [Example 174, 1-(2-(1-methyl-1H-imidazo[1,2-b]pyrazole-7-carbonyl)-2-azaspiro[3.3]heptan-6-yl)-1-(2,2,2-trifluoroethyl)-3-(3-(trifluoromethyl)phenyl)urea] | < 5 nM | 5 to 25 nM
2 | O=C(Nc1cc(OC(F)(F)F)ccn1)NC1CC2(C1)CN(C(=O)c1ccnc3[nH]ncc13)C2 [Example 154, 1-(2-(1H-pyrazolo[3,4-b]pyridine-4-carbonyl)-2-azaspiro[3.3]heptan-6-yl)-3-(4-(trifluoromethoxy)pyridin-2-yl)urea] | < 5 nM | 5 to 25 nM
3 | CN(C(=O)Nc1cncc(C(F)(F)F)c1)C1CC2(C1)CN(C(=O)c1cnn3ccccc13)C2 [Example 216, 1-methyl-1-(2-(pyrazolo[1,5-a]pyridine-3-carbonyl)-2-azaspiro[3.3]heptan-6-yl)-3-(5-(trifluoromethyl)pyridin-3-yl)urea] | < 5 nM | 25 to 100 nM
4 | COc1ccc2c(C(=O)N3CC4(CC(N(C)C(=O)Nc5cncc(C(F)(F)F)c5)C4)C3)cnn2c1 [Example 250, 1-(2-(6-methoxypyrazolo[1,5-a]pyridine-3-carbonyl)-2-azaspiro[3.3]heptan-6-yl)-1-methyl-3-(5-(trifluoromethyl)pyridin-3-yl)urea] | < 5 nM | 25 to 100 nM
5 | CN(C(=O)Nc1cc(Br)ccn1)C1CC2(C1)CN(C(=O)c1cnn3ccn(C)c13)C2 [Example 200, 3-(4-bromopyridin-2-yl)-1-methyl-1-(2-(1-methyl-1H-imidazo[1,2-b]pyrazole-7-carbonyl)-2-azaspiro[3.3]heptan-6-yl)urea] | < 5 nM | 5 to 25 nM
6 | Cc1c(F)cc(NC(=O)N(C)C2CC3(C2)CN(C(=O)c2cnn4ccn(C)c24)C3)cc1C(F)(F)F [Example 265, 3-(3-fluoro-4-methyl-5-(trifluoromethyl)phenyl)-1-methyl-1-(2-(1-methyl-1H-imidazo[1,2-b]pyrazole-7-carbonyl)-2-azaspiro[3.3]heptan-6-yl)urea] | < 5 nM | < 5 nM
7 | CN(C(=O)Nc1cc(C(C)(C)C)on1)C1CC2(C1)CN(C(=O)c1cnn3ccn(C)c13)C2 [Example 222, 3-(5-(tert-butyl)isoxazol-3-yl)-1-methyl-1-(2-(1-methyl-1H-imidazo[1,2-b]pyrazole-7-carbonyl)-2-azaspiro[3.3]heptan-6-yl)urea] | 5 to 25 nM | 25 to 100 nM
8 | Cc1ncc(NC(=O)N(C)C2CC3(C2)CN(C(=O)c2cnn4ccn(C)c24)C3)cc1C(F)(F)F [Example 180, 1-methyl-1-(2-(1-methyl-1H-imidazo[1,2-b]pyrazole-7-carbonyl)-2-azaspiro[3.3]heptan-6-yl)-3-(6-methyl-5-(trifluoromethyl)pyridin-3-yl)urea] | < 5 nM | 5 to 25 nM
9 | Cc1ncc(C(F)(F)F)cc1NC(=O)NC1CC2(C1)CN(C(=O)c1cnn3ccsc13)C2 [Example 165, 1-(2-methyl-5-(trifluoromethyl)pyridin-3-yl)-3-(2-(pyrazolo[5,1-b]thiazole-7-carbonyl)-2-azaspiro[3.3]heptan-6-yl)urea] | < 5 nM | 5 to 25 nM
10 | Cn1ccn2ncc(C(=O)N3CC4(CC(OC(=O)Nc5cc(C(F)(F)F)ccn5)C4)C3)c12 [Example 296, 2-(1-methyl-1H-imidazo[1,2-b]pyrazole-7-carbonyl)-2-azaspiro[3.3]heptan-6-yl(4-(trifluoromethyl)pyridin-2-yl)carbamate] | < 5 nM | 5 to 25 nM
11 | COc1ccc(Cl)cc1NC(=O)NC1CC2(C1)CN(C(=O)c1cnn3ccn(C)c13)C2 [Example 38, 1-(5-chloro-2-methoxyphenyl)-3-(2-(1-methyl-1H-imidazo[1,2-b]pyrazole-7-carbonyl)-2-azaspiro[3.3]heptan-6-yl)urea] | < 5 nM | 5 to 25 nM
